Activity calls are given as the source filed them. No cut-off for these calls is given here.
Assays:
NIH3T3 [1] = experiment: Wound healing activity in Swiss albino mouse 3T3 cells assessed as cell migration-associated increase in cell number at 20 uM after 12 hrs by scratch assay; format: functional, cell-based
NIH3T3 [2] = experiment: Wound healing activity in Swiss albino mouse 3T3 cells assessed as cell migration-associated increase in cell number at 1 uM after 12 hrs by scratch assay; format: functional, cell-based
NIH3T3 [3] = experiment: Wound healing activity in Swiss albino mouse 3T3 cells assessed as cell migration-associated increase in cell number at 10 uM after 12 hrs by scratch assay; format: functional, cell-based
NIH3T3 [4] = experiment: Cytotoxicity against Swiss albino mouse 3T3 cells at 10 to 20 uM; format: cell-based; conditions: nih3t3, 20 µM
Jurkat = experiment: Inhibition of TNF-alpha-induced NFkappaB activity in human Jurkat cells at 10 uM after 24 hrs by EMSA; format: cell-based

COc1c(O)cc([C@H]2Oc3c(c(O)cc(O)c3[C@H]3c4c(O)cc(O)cc4O[C@H](c4ccc(O)c(O)c4)[C@@H]3O)C[C@@H]2O)cc1O
Activity (NIH3T3 [1]): inactive | Activity (NIH3T3 [2]): Active | Activity (NIH3T3 [3]): inactive | Activity (NIH3T3 [4]): Toxic

COc1c(O)cc([C@H]2Oc3cc(O)cc(O)c3[C@@H](c3c(O)cc(O)c4c3O[C@H](c3cc(O)c(OC)c(O)c3)[C@@H](O)C4)[C@@H]2O)cc1O
Activity (NIH3T3 [1]): inactive | Activity (NIH3T3 [2]): Active | Activity (NIH3T3 [3]): inactive | Activity (NIH3T3 [4]): Toxic

COc1c(O)cc([C@H]2Oc3c(c(O)cc(O)c3[C@H]3c4c(O)cc(O)cc4O[C@H](c4cc(O)c(O)c(O)c4)[C@@H]3O)C[C@@H]2O)cc1O
Activity (NIH3T3 [1]): inactive | Activity (NIH3T3 [2]): Active | inhibition (Jurkat): Active | Activity (NIH3T3 [3]): inactive | Activity (NIH3T3 [4]): Toxic

From ChEMBL document CHEMBL1811894, “Structural and conformational analysis of proanthocyanidins from Parapiptadenia rigida and their wound-healing properties” (J Nat Prod, 2011)
